Columns and labels:
OVx rats = settings: cited from earlier work
[1] = test system: ovariectomized (OVx) rats; assay: Trabecular bone strength, Bone Strength Tester TK-252C; assay type: in vivo, female Sprague Dawley rats; settings: one month treatment
Description: (§1) The study was conducted in accordance with current legislation on animal experiments [Institutional Animal Ethical Committee (IAEC)] at C.D.R.I. Forty female Sprague Dawley rats weighing 200 g were taken for the study (n=10/group). Thirty rats were bilaterally ovariectomized (OVx). The other 10 rats were exposed to a sham surgical procedure. All rats were individually housed at 21° C., in 12-h/12-h light-dark cycles. Normal chow diet and water was provided ad libitum. The rats were left for 4 weeks to develop osteopenia. The animals were divided into 4 groups Sham, Ovaticetomized group (Ovx), Ovx+Kaempferol (Ovaticetomized group treated with Kaempferol) and Ovx+F (Ovaticetomized group treated with formulation of Kaempferol). Animals were treated for one month then sacrificed and BMD was determined.
This test predominantly measured trabecular bone strength using a Bone Strength Tester TK-252C (Muromachi Kikai Co. Ltd., Tokyo, Japan). The bone strength for all the groups was measured as reported in this invention.

[2] = test system: ovariectomized (OVx) rats; assay: Bone mineral density (BMD) by DEXA after one month of oral administration; assay type: in vivo, female Sprague Dawley rats
Description: as §1
BMD was determined by DEXA (Dual Energy X-ray Absorptiometry) using a Hologic QDR 4500A x-ray densitometer with high-resolution small animal software. BMD of the excised bones (left femurs, tibia, and lumbar vertebrae) were studied at the end of experiment. Left femurs were placed on their posterior surfaces, and BMD of the sub-regions was assessed. Distal and proximal regions corresponded to the cancellous bone and central to the cortical bone. Results are given in g/cm^2 as represented in FIG. 5.

in vivo = settings: rat, po, 1 mg/kg
Description: Kaempferol (free; 1 mg/kg) in 20% ethanol was orally administered by gavage. Following administration, the rats were sacrificed at 0.25, 0.5, 1.0, 1.5, 2.0, 2.5, 3.0, 4.0, 6.0, and 24 h to obtain serum and bone marrow. After protein precipitation, concentration of Kaempferol in serum and bone marrow was determined by HPLC. […] Similarly formulated (LbL based assembly) Kaempferol (equivalent to 1 mg/kg of free Kaempferol) was administered orally using gavage. Following administration, the rats were sacrificed at 0.25, 0.5, 1.0, 1.5, 2.0, 2.5, 3.0, 4.0, 6.0, and 24 h to obtain serum and bone marrow. After protein precipitation concentration of Kaempferol in serum and bone marrow was determined by HPLC. The mean serum pharmacokinetics profile (for the three rats at each time point) of kaempferol on administration of formulation was calculated over 24 h. Rapid absorption of Kaempferol is evident, which appeared to peak after 1 h and can be detected for as long as 24 h post administration.

[3] = In vitro Kaempferol release in SGF and SIF; assay type: physicochemical; settings: SIF compared with SGF
Excerpt: For in-vitro release study the ultra sink condition was maintained. Briefly, Dried pure Kaempferol dispersed in PBS, the Kaempferol-loaded CaCO3 MP (CaCO3-Kaempferol) and the encapsulated Kaempferol-loaded microcapsules suspension in same concentration were taken in centrifuge tube in one ml phosphate buffer saline (PBS). Two different pH solutions were used as the release medium [a simulated gastric fluid (SGF) (pH 1.2), prepared by diluting a concentrated HCl solution] and [a simulated intestinal fluid (SIF) (pH 7.4), prepared with 0.02M phosphate buffer saline]. The sample was maintained under horizontal agitation at 37° C. in vortex. At different time intervals the dispersion was centrifuged at 10,000 rpm for 5 min. and the supernatant was assayed for Kaempferol using RP-HPLC method at 370 nm against reagent blank. After each sampling the medium was replaced with fresh buffer. It was also ensured that no extra tiny particles are left in the supernatant.

[4] = compared with OVx group treated with vehicle
[5] = one month oral treatment, excised bone

AUC(0-t) (in vivo): 1420 ng·h/mL
Tmax (in vivo): 30 min
time after which bone marrow level went below the detection limit (in vivo): 2.5 h
time after which serum level went below the detection limit (in vivo): 6 h
time of Cmax in bone marrow (in vivo): 90 min
Cmax (in vivo; Cmax of Kaempferol in bone marrow): 194 ng/mL
Cmax (in vivo; Cmax of Kaempferol in serum): 583 ± 229 ng/mL
Kaempferol saturation solubility [3]: much higher
Compound: O=c1c(O)c(-c2ccc(O)cc2)oc2cc(O)cc(O)c12 [Kaempferol]
bone sparing action (OVx rats): exerts bone sparing action
estrogen agonistic effect at the uterine level (OVx rats): no estrogen agonistic effect
adipocyte differentiation from bone marrow cells (OVx rats; [4]): inhibition
osteoprogenitor cells (OVx rats; [4]): increase
bone biomechanical strength over OVx+vehicle group [1]: significantly higher
Bone strength ([1]; trabecular bone): 209.4 ± 21.52 N/mm
Bone Mineral Density, Femur diaphysis [2, 5]: 0.2658 ± 0.01 g/cm^2
Bone Mineral Density, Femur global [2, 5]: 0.262 ± 0.01 g/cm^2
Bone Mineral Density, Tibia Head [2, 5]: 0.2835 ± 0.015 g/cm^2
Bone Mineral Density, Vertebrae global [2, 5]: 0.1847 ± 0.013 g/cm^2
trabecular BMD over OVx+vehicle group ([2]; one month treatment): significantly higher

Reference: patent US8496964B2, “Controlled release micro-capsule for osteogenic action” (Council of Scientific & Industrial Research, priority 2009, dated 2013)
